Patent publication US8735387B2, “Oxazolopyrimidines as Edg-1 receptor agonists” (Sanofi, priority 2008, dated 2014)

molecular target: T1, human Edg-1 receptor (Homo sapiens, UniProt P21453); assay: GTP-γ-S assay using human Edg-1 receptors (scintillation proximity assay, membrane preparation from CHO Flp-In cell line); assay type: biochemical; settings: example compound at 10 μM; relative to 10 μM S1P; GTP-γ-S SPA, human Edg-1 membranes
T1 construct: expressed in transfected cells; membrane preparation
Summary of the method: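 Membranes came from Flp-In CHO cells constitutively expressing human Edg-1 carrying an N-terminal FLAG tag. Compound-induced receptor activation was read as GTP-γ-S binding in a scintillation proximity format.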

T1 sequence (P21453 whole entry): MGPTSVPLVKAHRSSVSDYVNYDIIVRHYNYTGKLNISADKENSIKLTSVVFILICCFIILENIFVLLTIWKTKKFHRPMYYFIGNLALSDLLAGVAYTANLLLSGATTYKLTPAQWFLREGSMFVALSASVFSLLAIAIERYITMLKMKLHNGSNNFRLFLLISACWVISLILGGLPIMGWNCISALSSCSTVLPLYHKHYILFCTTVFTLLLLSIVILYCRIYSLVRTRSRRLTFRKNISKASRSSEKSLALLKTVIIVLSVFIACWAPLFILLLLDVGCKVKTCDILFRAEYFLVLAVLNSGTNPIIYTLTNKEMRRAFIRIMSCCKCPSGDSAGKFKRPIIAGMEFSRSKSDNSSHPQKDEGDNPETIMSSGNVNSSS

SMILES | % Activation (Edg-1 receptor activation in percent of the activation by 10 μM S1P) [%]
CCOc1nc(Cc2ccc(Cl)cc2)nc2oc(-c3cccc(OCC(=O)NCC(=O)O)c3)nc12 [Example 267] | 72
CCOc1nc(Cc2ccc(Cl)cc2)nc2oc(-c3cc(C)c(OCCCS(=O)(=O)c4nnc(C(C)C)[nH]4)c(C)c3)nc12 [Example 275] | 88
CCCOc1nc(CN2CCOCC2)nc2oc(-c3ccnc(Cl)c3)nc12 [Example 71] | 116
CCCOc1nc(Cc2ccc(Cl)cc2)nc2oc(-c3cc(C)c(OCC4CC4)c(C)c3)nc12 [Example 315] | 79
FCCCOc1nc(Cc2ccc(Cl)cc2)nc2oc(-c3cccnc3)nc12 [Example 126] | 105
CCCOc1nc(Cc2ccc(Cl)cc2)nc2oc(-c3cc(C(F)(F)F)cc(C(F)(F)F)c3)nc12 [Example 138] | 52
CCOc1nc(Cc2ccc(Cl)cc2)nc2oc(-c3cc(C)c(OCC(=O)N4CC(C(=O)OC)C4)c(C)c3)nc12 [Example 246] | 111
CCCOc1nc(CN2CCCOCC2)nc2oc(-c3cccc(OC)c3)nc12 [Example 37] | 116
CCCOc1nc(Cc2ccc(Cl)cc2)nc2oc(-c3ccc(OCC(O)CNCc4ccccc4)c(Cl)c3)nc12 (stereo not drawn) [Example 210] | 94
CCCOc1nc(CN2CCC(F)(F)CC2)nc2oc(-c3ccc(Cl)c(F)c3)nc12 [Example 90] | 115
CCCOc1nc(Cc2ccc(Cl)cc2)nc2oc(-c3ccc(OCC(O)CNC4CCCCC4)c(Cl)c3)nc12 (stereo not drawn) [Example 211] | 112
CCOc1nc(Cc2ccc(Cl)cc2)nc2oc(-c3cc(C)c(OCC(=O)NCC#N)c(C)c3)nc12 [Example 294] | 83
FCCCOc1nc(Cc2ccc(Cl)cc2)nc2oc(-c3cccnc3)nc12 [Example 125] | 112
CCCOc1nc(Cc2ccc(Cl)cc2)nc2oc(-c3ccc(OC)c(Cl)c3)nc12 [Example 218] | 42
CCOc1nc(Cc2ccc(Cl)cc2)nc2oc(-c3cccc(OCC(=O)N[C@@H](CO)C(=O)O)c3)nc12 [Example 297] | 99
CCOc1nc(Cc2ccc(Cl)cc2)nc2oc(-c3cc(C)c(OCCCS(=O)(=O)c4nnc(C5CC5)[nH]4)c(C)c3)nc12 [Example 274] | 120
CCOc1nc(Cc2ccc(Cl)cc2)nc2oc(-c3cccc(O)c3)nc12 [Example 302] | 103
CCOc1nc(Cc2ccc(Cl)cc2)nc2oc(-c3cccc(OCC(=O)N4CCC[C@H]4C(=O)O)c3)nc12 [Example 270] | 104
CCCOc1nc(CN2CCCOCC2)nc2oc(-c3cc(F)ccc3Cl)nc12 [Example 23] | 97
CCCOc1nc(Cc2ccc(Cl)cc2)nc2oc(-c3cc(C)c(OCCCN[C@@H](Cc4ccccc4)C(=O)O)c(C)c3)nc12 [Example 289] | 80
CCCOc1nc(CN2CC[S+]([O-])CC2)nc2oc(-c3cccc(F)c3)nc12 [Example 46] | 35
CCCOc1nc(Cn2cnc(C)c2)nc2oc(-c3cccc(F)c3)nc12 [Example 57] | 99

SMILES | % Activation (Edg-1 receptor activation in percent of the activation by 10 μM S1P) [%]
CCCOc1nc(Cc2ccc(Cl)cc2)nc2oc(-c3ccc(F)c(F)c3)nc12 [Example 132] | 71
CCOc1nc(Cc2ccc(Cl)cc2)nc2oc(-c3cc(C)c(OCC(O)CS(=O)(=O)c4nnc(C)[nH]4)c(C)c3)nc12 (stereo not drawn) [Example 272] | 105
CCOc1nc(Cc2ccc(Cl)cc2)nc2oc(-c3cc(C)c(OCC(O)CNC(=O)CC(C)C)c(C)c3)nc12 (stereo not drawn) [Example 217] | 78
CCCOc1nc(CN2CCC(F)(F)CC2)nc2oc(-c3ccc(Cl)c(Cl)c3)nc12 [Example 79] | 111
CC(C)Oc1nc(CN2CCOCC2)nc2oc(-c3cccc(F)c3)nc12 [Example 205] | 115
CCOc1nc(Cc2ccc(Cl)cc2)nc2oc(-c3cccc(OCC(=O)NC(C)(C)C(=O)O)c3)nc12 [Example 271] | 53
CCCOc1nc(Cn2ncnc2C)nc2oc(-c3cccc(F)c3)nc12 [Example 155] | 87
CCCOc1nc(CN2CCC(O)C2)nc2oc(-c3cccc(F)c3)nc12 (stereo not drawn) [Example 181] | 58
CCCOc1nc(CN2CCC(F)(F)CC2)nc2oc(-c3ccccc3)nc12 [Example 42] | 92
CCCOc1nc(CN2CCC(F)(F)CC2)nc2oc(-c3cccc(Cl)c3)nc12 [Example 28] | 102
CCCOc1nc(Cn2cc(C)cn2)nc2oc(-c3cccc(F)c3)nc12 [Example 58] | 35
CCCOc1nc(CN2CCCC(C(F)(F)F)C2)nc2oc(-c3cccc(F)c3)nc12 (stereo not drawn) [Example 304] | 102
Fc1cccc(-c2nc3c(OCC4CC4)nc(CC4CCOCC4)nc3o2)c1 [Example 161] | 96
CCCOc1nc(Cc2ccc(Cl)cc2)nc2oc(-c3ccc(OCC(=O)O)c(Cl)c3)nc12 [Example 219] | 107
CCOc1nc(Cc2ccc(Cl)cc2)nc2oc(-c3cc(C)c(OCCC[S+]([O-])c4ncn[nH]4)c(C)c3)nc12 (stereo not drawn) [Example 292] | 86
CCOc1nc(Cc2ccc(Cl)cc2)nc2oc(-c3ccc(OC)c(F)c3)nc12 [Example 277] | 49
Cc1cccc(-c2nc3c(OCCF)nc(Cc4ccc(Cl)cc4)nc3o2)c1 [Example 118] | 103
CCOc1nc(Cc2ccc(Cl)cc2)nc2oc(-c3ccc(OCC(=O)NCCN4CCOCC4)c(F)c3)nc12 [Example 279] | 77
CCCOc1nc(Cc2ccc(Cl)cc2)nc2oc(-c3cc(C)c(OCC(=O)N4CC(C(=O)O)C4)c(C)c3)nc12 [Example 242] | 106
CCCOc1nc(Cn2ccnc2C)nc2oc(-c3cccc(F)c3)nc12 [Example 48] | 81
CCCOc1nc(CC2CCOCC2)nc2oc(-c3cccc(C)c3)nc12 [Example 159] | 73

same assay, conditions: example compound at 10 μM; relative to 10 μM S1P; GTP-γ-S SPA, human Edg-1 membranes; read-out: % Activation (Edg-1 receptor activation in percent of the activation by 10 μM S1P)

SMILES | activation at 10 µM [%]
CCCOc1nc(Cc2ccc(Cl)cc2)nc2oc(-c3cccc(F)c3)nc12 [Example 5, 5-(4-Chloro-benzyl)-2-(3-fluoro-phenyl)-7-propoxy-oxazolo[5,4-d]pyrimidine] | 98
CCCOc1nc(CCc2ccc(OC)cc2)nc2oc(-c3cccc(C)c3)nc12 [Example 8, 5-[2-(4-methoxy-phenyl)-ethyl]-2-(3-methyl-phenyl)-7-propoxy-oxazolo[5,4-d]pyrimidine] | 51
Cc1cccc(-c2nc3c(OCC4CC4)nc(Cc4ccc(Cl)cc4)nc3o2)c1 [Example 105, 5-(4-chloro-benzyl)-7-cyclopropylmethoxy-2-(3-methyl-phenyl)-oxazolo[5,4-d]pyrimidine] | 81
CCCOc1nc(C(C)c2ccccc2)nc2oc(-c3cccc(C)c3)nc12 (stereo not drawn) [Example 13, 5-(1-Phenyl-ethyl)-7-propoxy-2-(3-methyl-phenyl)-oxazolo[5,4-d]pyrimidine] | 119
CCCOc1nc(Cc2ccc(Cl)cc2)nc2oc(-c3cc(C)c(OCCCN4CCOCC4)c(C)c3)nc12 [Example 200, 5-(4-Chloro-benzyl)-2-[3,5-dimethyl-4-(3-morpholin-4-yl-propoxy)-phenyl]-7-propoxy-oxazolo[5,4-d]pyrimidine] | 79
CCCOc1nc(CN2CCOCC2)nc2oc(-c3ccco3)nc12 [Example 2, 2-Furan-2-yl-5-morpholin-4-ylmethyl-7-propoxy-oxazolo[5,4-d]pyrimidine] | 80
CCOc1nc(Cc2ccc(Cl)cc2)nc2oc(-c3cc(C)c(OCC(O)CS(=O)(=O)c4nnc(C(C)C)[nH]4)c(C)c3)nc12 (stereo not drawn) [Example 197, 1-{4-[5-(4-Chloro-benzyl)-7-ethoxy-oxazolo[5,4-d]pyrimidin-2-yl]-2,6-dimethyl-phenoxy}-3-(5-isopropyl-4H-[1,2,4]triazole-3-sulfonyl)-propan-2-ol] | 119
CCCOc1nc(CN2CCOCC2)nc2oc(-c3ccc(Br)o3)nc12 [Example 3, 2-(5-Bromo-furan-2-yl)-5-morpholin-4-ylmethyl-7-propoxy-oxazolo[5,4-d]pyrimidine] | 113
